According to patent US20160058829A1, “ANTI-FIBROTIC PEPTIDES AND THEIR USE IN METHODS FOR TREATING DISEASES AND DISORDERS CHARACTERIZED BY FIBROSIS” (Thrasos Innovation, Inc., priority 2011, published 2016):
Positions of bridges follow the written chain, without caps; N, C: chain ends.

How the values were obtained:
[1] = test system: mice with ischemia reperfusion injury; experiment: Ischemia reperfusion injury (IRI) in mice; type: in vivo
Procedure: FIG. 55A-FIG. 55D The effect of THR-123 on acute tubular damage induced by ischemia reperfusion injury. Ischemia reperfusion injury (IRI) was induced by the clamping of the left renal pedicle for 25 minutes. After ischemia reperfusion injury the mice were given THR-123 orally (5 mg/kg/day) or PBS till the day of sacrifice. […] Arrows indicate necrotic tubules. FIG. 55B. […] FIG. 55C. […] Ten fields in each group were analyzed. FIG. 55D. Blood urea nitrogen estimated by quantichrome colorimetric urea assay at day 7 IRI. No difference in the all groups. PBS group (n=5) and THR-123-treated group (n=4) are analyzed. Data are shown as mean±s.e.m. in the graph.
7B16 mice are used in this study. Mice are anesthetized with the mixture of ketamine and xylazine and the left renal pedicle clamped for 25 minutes. At same day after surgery, THR-123 (p.o. 5 mg/Kg/day) or vehicle treatments are started. At 7 days after surgery, mice are sacrificed.

Smad 1/5/8 = Smad 1/5/8 phosphorylation and nuclear translocation in HK-2 cells; type: cell-based, human
Procedure: Human renal proximal tubule epithelial cells (HK-2) were incubated in the presence (right panel) and absence (left panel) of THR-123. The cells were washed, and then incubated with the primary antibody against phospho Smad 1/5/8, followed by immunostaining with a fluorescently labeled secondary antibody. The significance of pSmad 1/5/8 in renal fibrosis is tied to BMP7 suppression of TGF-β-dependent profibrotic pathways, which are central to renal fibrotic injury. Specifically, BMP7 suppression of such TGF-β-dependent profibrotic pathways is mediated in part by the activation of downstream BMP target proteins, Smad 1, 5, and 8. (Manson S R et al., J. Urol. 85:2523-30, 2011).

COL4A3−/− mice = experiment: COL4A3 deficient mice (Alport syndrome model); type: in vivo
Source text: FIG. 64a-FIG. 64N […] inhibits Renal Fibrosis in the COL4A3 Deficient mice. FIG. 64A-FIG. 64C. Representative histological PAS staining of glomeruli from 16 weeks old wild type (FIG. 64A); 16 weeks old COL4A3−/− (FIG. 64B), and 16 weeks old COL4A3−/− mice treated with THR-123 (FIG. 64C), original magnification ×400. D-F. Representative histological Masson's trichrome staining of kidneys from 16 weeks old wild type (FIG. 64D); 16 weeks old COL4A3−/− (FIG. 64E), and 16 weeks old COL4A3−/− mice treated with THR-123 (FIG. 64F), original magnification ×100. FIG. 64G-FIG. 64I. Morphometric analyses from 16 weeks old wild type (n=5), COL4A3−/− (n=5) and COL4A3−/− mice treated with THR-123 (n=5) assessing percent normal glomeruli (FIG. 64G), tubular damage index (FIG. 64H), relative interstitial volume (FIG. 64I). FIG. 64J. Blood urea nitrogen measurement for […] wild type (n=5), 16 weeks old COL4A3−/− (n=5) and COL4A3−/− mice treated with THR-123 (n=5). FIG. 64K-FIG. 64M. FSP1/E-cadherin immunolabeling of kidney. Representative results are shown. FIG. 64N. Percent of E-cadherin/FSP1double positive tubule, 500 tubules per slide, 5 slides per experimental group.
Eight weeks old COL4A3^−/− mice are treated either THR-123 (p.o. 5 mg/Kg/day) or vehicle. COL4A3^−/− mice are sacrificed at 16 weeks of age.
For morphometric analyses of percent normal glomeruli, 100 glomeruli were counted per slide from random fields of view, and five slides were counted per experimental group. The number of normal glomeruli was expressed as a percentage of the total number of glomeruli counted.

[2] = Pharmacokinetics and tissue distribution of 125I-labeled THR-123; type: in vivo, Wistar rats
Source text: FIG. 45A-FIG. 45G Pharmacokinetics of THR-123. FIG. 45A. BMP7 structure figure with the residue weights resulting from the analysis mapped on to it. FIG. 45B, FIG. 45C. Radio-ligand receptor binding assays specific for individual type I receptors, Alk-3 (FIG. 45B) and Alk-6 (FIG. 45C). Highly purified extra-cellular domain (ECD) of Alk-3 or Alk-6 (expressed as a fusion protein with Fc domain) served as a receptor. In each assay purified receptor was immobilized on each well and peptide analog or unlabeled BMP7 was added, followed by ^125I-labeled BMP7. Radiolabeled BMP7 complex was counted in an auto-gamma counter. Results were expressed as the mean±s.e.m. Unlabeled BMP7, which served as a positive control in both assays, gave linear dose-related response curves. FIG. 45D, FIG. 45E. Concentration of THR-123 in systemic circulation of Wistar rats following iv injection of THR-123 (^125I-Tyr) via the tail vein determined by total radioactivity measurement. […] FIG. 45F. Tissue distribution of ^125I-THR-123. Six hours after intravenous administration of ^125I labeled-THR-123 in rats at a dose of 6.25 mg/kg-body weight, tissues were harvested and analyzed by automatic gamma well counter. […] FIG. 45G. Oral administration of THR-123 and elimination of THR-123 from the body. Radioactivity of orally administrated ^125I labeled-THR-123 at a dose of 5 mg/kg body weight was localized in the kidney between 1 and 6 hours after administration and peaked at around 3 hours.
The persistence of THR-123 in systemic circulation was evaluated using iv-administered ^125I-labeled compound and following the radioactivity decay.

[3] = In vitro stability in rat blood, plasma and PBS-mannitol buffer (LC-MS-MS); type: in vitro ADME; conditions: 0.1 mg/mL, 37° C.
Procedure: FIG. 46 In vitro stability of THR-123. THR-123 was spiked into freshly harvested rat blood (male Sprague-Dawley, 0.35 kg BW) and plasma, and PBS-mannitol buffer solution at a final concentration of 0.1 mg/mL. Blood, plasma and buffer master tubes were incubated at 37° C. for up to 6 h and duplicate samples of 500 μl (blood) and 250 μl (plasma and […]) were collected for analysis at 0, 7.5, 15, 30, 60, 120, 240 and 360 min. Samples were analyzed for THR-123 using an LC-MS-MS method having a limit of detection of 1 μg/ml.
The stability of THR-123 in whole blood and plasma was tested in vitro. In PBS-mannitol buffer, THR-123 was stable for over 400 minutes (FIG. 46).

## (H)-CYFDDSSNVLCKKYRS-(OH) (H-CYFDDSSNVLCKKYRS-OH; disulfide 1-11; SMILES CC(C)C[C@@H]1NC(=O)[C@H](C(C)C)NC(=O)[C@H](CC(N)=O)NC(=O)[C@H](CO)NC(=O)[C@H](CO)NC(=O)[C@H](CC(=O)O)NC(=O)[C@H](CC(=O)O)NC(=O)[C@H](Cc2ccccc2)NC(=O)[C@H](Cc2ccc(O)cc2)NC(=O)[C@@H](N)CSSC[C@@H](C(=O)N[C@@H](CCCCN)C(=O)N[C@@H](CCCCN)C(=O)N[C@@H](Cc2ccc(O)cc2)C(=O)N[C@@H](CCCNC(=N)N)C(=O)N[C@@H](CO)C(=O)O)NC1=O) [SEQ ID NO: 1]
[1]; THR-123 orally 5 mg/kg/day versus PBS
  blood urea nitrogen at day 7 IRI: No difference
[1]; THR-123 orally 5 mg/kg/day, versus PBS, day 7
  renal tubular necrosis / tubular damage: significantly less tubular damage
Smad 1/5/8
  Smad 1/5/8 phosphorylation and nuclear translocation: induces Smad 1/5/8 phosphorylation and nuclear translocation
COL4A3−/− mice; THR-123 p.o. 5 mg/Kg/day
  blood urea nitrogen level: significantly improved blood urea nitrogen level
  tubular atrophy and interstitial fibrosis: significantly inhibited tubular atrophy and interstitial fibrosis
COL4A3−/− mice; THR-123 p.o. 5 mg/Kg/day, 8 to 16 weeks of age
  glomerular abnormalities: did not alter glomerular abnormalities
COL4A3−/− mice; mouse, in vivo
  acquisition of an EMT program: inhibited such acquisition of an EMT program
  macrophage infiltration: inhibited macrophage infiltration
  phospho-smad1/5 accumulation: increased accumulation of phospho-smad1/5
[2]; iv
  share of the injected dose in the beta phase: 10%
[2]; iv, 125I-labeled
  alpha phase half-life: very short half-life
  beta phase half-life: 0.917 to 0.967 h
  decrease of THR-123 levels in plasma and whole blood within 5 minutes: ~90%
[2]; iv, tail vein, total radioactivity
  share of the injected dose in the alpha phase: approximately 90%
[2]; oral, 24 hours after administration
  clearance of radioactivity from the kidney: completely cleared
[2]; six hours after iv 6.25 mg/kg, listed as THR-123, 6.25 mg/kg
  tissue distribution of radioactivity: majority of the radioactivity was still localized in the kidney and bladder
[3]
  half-life in rat plasma: 5.97 h
  half-life in rat whole blood: 1.17 h
